pIC50: −log10 of the molar value.

Usually pIC50 stands for −log10 of the IC50, conventionally taken in molar units. A lower pIC50 goes with a high IC50. Broadly, the T/C is the result in the treated group divided by that in the control group, in per cent.

One data set deals with T1, β5 (Homo sapiens, UniProt P28074).
T1 construct: using HEK-293 cell lysate as the enzyme source of D5; endogenous in cells; host or cells: HEK-293 (human embryonic kidney cells)
The experiment in a line: Enzymatic inhibitory activity on β5 (HEK-293 cell lysate, Ac-WLA-AMC substrate). It counts as biochemical. The note with it: 1 hour pre-incubation. The gist of the method:
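HEK-293 lysate (25 ng/μl final) preincubated 1 h at 23 °C with compound (9-point, 5-fold dilutions) in 20 mM Tris pH 8.0, 0.5 mM EDTA. Ac-WLA-AMC then added at 20 μM final for 2 h at 23 °C in the dark. AMC fluorescence read at Ex 345/Em 445 nm; IC50 from curve fit.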

Data set [1] concerns multiple myeloma cells MM. 1S. The experiment in a line: In-vivo assay I: subcutaneous xenograft model of multiple myeloma cells MM. 1S in mice. The note with it: MM. 1S xenograft, NOD/SCID mice; for animal death or weight loss caused by the compound: 2 mg/kg orally once daily for 14 days; for T/C / TGI (tumor growth inhibition rate): 2 mg/kg orally once daily, Day 14. The procedure:
Evaluation assay of LMP7 inhibitors in a subcutaneous xenograft model of multiple myeloma cells MM. 1S in mice
Female NOD/SCID mice, week old: 5-6 weeks old, certificate No: SCXK(Jing) 2021-0006, purchased from Beijing Vital River Experimental Animal Technology Co. Ltd.
The specific method was that mice were housed in an SPF environment. Every 5 mice were housed in 1 cage. Animals were free to drink and eat and were adaptively raised for one week. Laboratory conditions: room temperature 18-24° C., relative humidity 40%-70%, ventilated with a ventilation fan, natural light source for 12 hours per day. Cages, bedding, drinking water, and feed were replaced twice a week, and the replaced cages and drinking water bottles were cleaned and then sterilized by steam under high pressure. Cages, room walls, and floors were cleaned twice a week with 84-disinfectant or bromogeramine.
MM. 1S (Cell Resource Center, Institute of Basic Medical Sciences, Chinese Academy of Medical Sciences) cells were cultured using RPMI-1640 medium supplemented with 20% fetal bovine serum and 1% Penicillin-Streptomycin at 37° C. in an atmosphere of 5% CO2 in air. Cells were routinely sub-cultured twice weekly, and cells grown in the exponential growth phase were harvested and counted. Cell suspensions were mixed well in 30% Matrigel™ (Corning Matrigel™ High Concentration Basement Membrane) for tumor cell inoculation.
Mice were pretreated with cyclophosphamide via intraperitoneal injection for 3 days, and each mouse was subcutaneously injected with 0.1 mL of PBS-suspended MM. 1S cell suspension (containing 1.0×10^7 cells, 30% Matrigel) at the axillary sites on both sides to establish a subcutaneous transplanted tumor model of multiple myeloma cells MM. 1S in mice. When the tumor size reached 400-700 mm^3, the tumor mass was collected aseptically and cryopreserved for future use. The MM. 1S tumor mass was revived, and the tumor mass was aseptically collected for 2 generations for an in-vivo efficacy evaluation assay. When the average tumor volume was about 100-150 mm^3, 20 tumor-bearing mice with a relatively regular shape and uniform size were selected for the experiment. They were divided into 4 groups, with 5 animals in each group. The first group of the model group was orally administered with the vehicle once daily; the second group was orally administered with Example 9 (2 mg/kg) once daily; the third group was orally administered with Example 67 (2 mg/kg) once daily; the fourth group was orally administered Example 73 (2 mg/kg) once daily. Administration was started on the day of grouping and continued for 14 days. Tumor diameter and body weight were measured 3 times per week during the experiment. At the end of the experiment, intraocular canthus blood was collected and mice were sacrificed immediately after blood collection to collect tumor tissue.
The study endpoints were tumor growth inhibition, maximum tumor burden (individual tumor size equal to 10% of body weight), and weight loss greater than 20% of body weight at the start of treatment. The tumor volume was calculated as V=0.5×a×b^2, where V is the tumor volume and a and b are the length and width of the tumor, respectively. The tumor growth inhibition rate was calculated as TGI (%)=(1-(tumor volume of treatment group-tumor volume of treatment group at grouping)/(tumor volume of control group-tumor volume of control group at grouping))*100%. Complete tumor regression (CR) is defined as a tumor that is reduced to below the palpation limit (mm^3). Partial tumor regression (PR) is defined as a tumor that is reduced by at least half compared to the initial tumor volume. The minimum duration of CR or PR in three or more consecutive tumor measurements is required to consider CR or PR as persistent. […]

In the case of `O=C(Nc1ccccn1)C(=O)N[C@@H](Cc1coc2ccccc12)B(O)O` [Ex. 12], at β5, the pIC50 is 6.55.

As for `O=C1COB([C@H](Cc2coc3ccccc23)NC(=O)C(=O)Nc2cnccn2)O1` [Ex. 73], the pIC50 against β5 was 7.68. For the same compound, in data set [1], the “animal death or weight loss caused by the compound” value (“animal death or weight loss caused” below) was “no animal death or weight loss”, the T/C was found to be 0.53% and the “TGI (tumor growth inhibition rate)” value was found to be 112.56%.

`Cc1cnc(NC(=O)C(=O)N[C@@H](Cc2coc3ccccc23)B(O)O)s1` [Ex. 32, (R)-(2-(benzofuran-3-yl)-1-(2-oxo-2-((5-methylthiazol-2-yl)amino)acetamido)ethyl)boronic acid] showed a pIC50 on β5 of 7.20.

The compound `CC1CC(C)(C)OB([C@H](Cc2coc3ccccc23)NC(=O)C(=O)Nc2cnccn2)O1` (stereo partly shown) [Ex. 67] showed a pIC50 on β5 of 7.42. In data set [1], the “animal death or weight loss caused” value was “no animal death or weight loss”, the T/C is recorded as 1.57% and the “TGI (tumor growth inhibition rate)” value turned out to be 112.06%.

At β5, `O=C(Nc1nc2ccccc2s1)C(=O)N[C@@H](Cc1coc2ccccc12)B(O)O` [Ex. 27, (R)-(2-(benzofuran-3-yl)-1-(2-oxo-2-((benzo[d]thiazol-2-yl)amino)acetamido)ethyl)boronic acid] showed a pIC50 of 7.35.

As to `O=C(Nc1cc(Cl)ccn1)C(=O)N[C@@H](Cc1coc2ccccc12)B(O)O` [Ex. 49, (R)-(2-(benzofuran-3-yl)-1-(2-oxo-2-((4-chloropyridin-2-yl)amino)acetamido)ethyl)boronic acid], the pIC50 on β5 is 7.21.

Regarding `O=C(Nc1cnccn1)C(=O)N[C@@H](Cc1coc2ccccc12)B(O)O` [Ex. 9, (R)-(2-(benzofuran-3-yl)-1-(2-oxo-2-(pyrazin-2-ylamino)acetamido)ethyl) boronic acid], the pIC50 against β5 was 7.01. Also, in data set [1], the “animal death or weight loss caused” value is listed as “no animal death or weight loss”, the T/C amounted to 0.88% and the “TGI (tumor growth inhibition rate)” value came to 112.28%.

The values above are taken from patent publication US20240425529A1, “BORIC ACID DERIVATIVE” (SHOUYAO HOLDINGS (BEIJING) CO., LTD., priority 2021, published 2024).
